# Source: US5641779A, “Selective ligands of 5-HT1D -5-HT1B receptors derived from indolepiperazine which are useful medicaments” (Pierre Fabre Medicament, priority 1992, dated 1997)
# Structures can show the parent of a compound that is named as a salt.
# How the values were obtained:
# 5-HT1D = test: Affinity for 5-HT1D receptors (3H-5-HT binding, sheep caudate nuclei membranes); conditions: Ratio of the IC50 values for the 5HT1A and 5HT1D receptors
# Procedure: This study is carried out according to the technique described by Herrick-Davis and Titeler (J. Neurochem. 50, 1624-1631, 1988).
# Preparation of the membranes:
# Sheep brains are removed at the local abattoir and transported in ice. The caudate nuclei are removed, weighed and homogenized with a Polytron for 20 sec. (speed 6-7) in 20 volumes of Tris-HCl 50 mM, pH 7.7. The homogenate is centrifuged for 10 min at 48,000 g with an L5 50E centrifuge (Beckman).
# The pellet, taken up in 20 volumes of Tris-HCl 50 mM, pH 7.7, is placed in a water bath at 37° C. for 10 min and then recentrifuged for 10 min at 48,000 g. The pellet then obtained is immediately frozen in fractions containing 0.5 g of tissue.
# The pellet is defrosted and homogenized with a Dounce in 80 volumes of Tris-HCl, 50 mM pH 7.7 containing 4 mM CaCl2, 10μM of pargyline and 0.1% of ascorbic acid.
# Binding is carried out at 25° C. by incubating for 30 min:
# 0.1 ml of buffer or 10 μM, as final concentration, of sumatriptan, in order to obtain the non-specific binding, or the product which forms part of this invention at various concentrations (between 10^-10 and 10^-6 M).
# 0.8 ml of membrane suspension
# 0.1 ml of ^3 H-5-HT (15 to 30 Ci/mM, New England Nuclear France)
# The incubation is brought to an end by rapid filtration through GF/B filters and rinsing with 3 times 3 ml of ice-cold buffer, using a harvester manufactured by Brandel which makes it possible to filter 48 samples. The filters are introduced into vials containing 4 ml of emulsifier-safe liquid scintillant (Packard) and the radioactivity measured with a Tri-carb 4640 counter (Packard).
# The IC50 (concentration which inhibits the specific affinity by 50%) is determined graphically.
# 5-HT1A = target: T1, 5-HT1A (Rattus norvegicus, UniProt P19327); test: 5-HT1A receptor binding (Peroutka); conditions: rat frontal cortex (title of cited method); mean; read-out: IC50 5-HT1A mean
# T1 construct: from tissue; host or cells: rat frontal cortex
# T1 sequence (P19327 1-422): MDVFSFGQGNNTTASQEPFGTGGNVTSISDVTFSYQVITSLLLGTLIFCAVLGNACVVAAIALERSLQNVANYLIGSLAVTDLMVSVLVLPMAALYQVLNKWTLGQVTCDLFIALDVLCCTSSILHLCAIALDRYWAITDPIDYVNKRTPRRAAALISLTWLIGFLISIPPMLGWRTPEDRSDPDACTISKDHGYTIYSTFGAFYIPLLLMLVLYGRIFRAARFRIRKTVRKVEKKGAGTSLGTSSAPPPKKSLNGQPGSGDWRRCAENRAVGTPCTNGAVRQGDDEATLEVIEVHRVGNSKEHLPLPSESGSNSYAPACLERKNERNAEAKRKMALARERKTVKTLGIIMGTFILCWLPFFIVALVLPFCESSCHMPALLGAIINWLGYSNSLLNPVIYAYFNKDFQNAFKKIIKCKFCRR
# Procedure: (§1) The IC50 values of the various products which form part of this invention for the other receptors were measured according to the techniques described in the following references:
# (§2) Peroutka S. J. Pharmacological differentiation and characterization of 5-HT1A, 5-HT1B and 5-HT1C binding sites in rat frontal cortex. J. Neurochem., 45, 529-540, 1986.
# 5-HT1B = target: T2, 5-HT1B (Rattus norvegicus, UniProt P28564); test: 5-HT1B receptor binding (Peroutka); conditions: rat frontal cortex (title of cited method); mean; read-out: IC50 5-HT1B mean
# T2 construct: from tissue; host or cells: rat frontal cortex
# T2 sequence (P28564 whole entry): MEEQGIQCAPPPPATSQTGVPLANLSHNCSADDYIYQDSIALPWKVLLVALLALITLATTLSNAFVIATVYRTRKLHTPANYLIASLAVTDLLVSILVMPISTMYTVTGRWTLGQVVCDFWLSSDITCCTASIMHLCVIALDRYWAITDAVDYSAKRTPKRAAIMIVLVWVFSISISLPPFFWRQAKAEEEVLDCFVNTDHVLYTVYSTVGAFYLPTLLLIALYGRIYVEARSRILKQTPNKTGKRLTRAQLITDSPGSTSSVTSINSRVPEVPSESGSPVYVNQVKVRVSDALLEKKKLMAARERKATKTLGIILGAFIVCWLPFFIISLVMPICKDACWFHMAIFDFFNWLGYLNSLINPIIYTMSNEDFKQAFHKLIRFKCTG
# Procedure: as §1, §2
# 5-HT1C = target: T3, 5-HT1C (Sus scrofa, UniProt K7GSR7); test: 5-HT1C receptor binding (Pazos et al.); parameters: species or system porcine; conditions: porcine choroid plexus (title of cited method); read-out: IC50 5-HT1C
# T3 construct: serotonergic ligands to the porcine choroid plexus; from tissue; host or cells: porcine choroid plexus
# T3 sequence (K7GSR7 1-457): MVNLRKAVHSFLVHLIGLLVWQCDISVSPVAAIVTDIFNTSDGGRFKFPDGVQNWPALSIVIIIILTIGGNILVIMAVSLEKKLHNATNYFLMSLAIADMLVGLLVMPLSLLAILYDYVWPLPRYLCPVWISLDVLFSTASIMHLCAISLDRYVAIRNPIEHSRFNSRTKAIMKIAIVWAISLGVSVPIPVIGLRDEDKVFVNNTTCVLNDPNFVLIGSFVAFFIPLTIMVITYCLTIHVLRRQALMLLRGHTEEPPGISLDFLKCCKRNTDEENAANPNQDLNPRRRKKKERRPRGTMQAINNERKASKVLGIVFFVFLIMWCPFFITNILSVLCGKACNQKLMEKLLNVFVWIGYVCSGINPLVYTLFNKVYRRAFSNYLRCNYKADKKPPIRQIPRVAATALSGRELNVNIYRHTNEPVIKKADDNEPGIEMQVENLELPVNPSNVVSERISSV
# Procedure: as §1
# Pazos A., Hoyer D. and Palacios J. M. The binding sites of serotonergic ligands to the porcine choroid plexus: characterization of a new type of serotonin recognition site. Eur. J. Pharmacol., 106, 539-546, 1985.
# 5-HT2 = target: T4, 5-HT2 (Rattus norvegicus, UniProt P14842); test: 5-HT2 receptor binding (Leysen et al.); conditions: 3H-ketanserine (title of cited method)
# T4 construct: from tissue
# T4 sequence (P14842 whole entry): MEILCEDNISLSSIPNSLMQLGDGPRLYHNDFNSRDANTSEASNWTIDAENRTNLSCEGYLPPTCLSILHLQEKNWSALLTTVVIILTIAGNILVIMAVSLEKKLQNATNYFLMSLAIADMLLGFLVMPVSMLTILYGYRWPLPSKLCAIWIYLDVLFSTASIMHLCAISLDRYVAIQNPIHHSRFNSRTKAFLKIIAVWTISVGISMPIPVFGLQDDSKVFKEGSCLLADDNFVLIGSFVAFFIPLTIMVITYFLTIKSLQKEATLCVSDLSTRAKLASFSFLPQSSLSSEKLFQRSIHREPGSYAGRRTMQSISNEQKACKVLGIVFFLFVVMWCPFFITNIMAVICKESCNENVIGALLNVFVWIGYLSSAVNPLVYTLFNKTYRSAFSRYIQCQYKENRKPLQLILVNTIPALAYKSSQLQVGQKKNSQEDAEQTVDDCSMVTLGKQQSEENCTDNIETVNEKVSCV
# Procedure: as §1
# Leysen J. E., Niemegeers C. J. E., Van Nueten J. M. and Laduron P.M. ^3 H-ketanserine (R 41468), a selective ^3 H ligand for serotonin2 receptor binding sites. Mol. Pharmacol., 21, 301-330, 1982.
# α2-Adrenergic receptor = target: T5, α2-Adrenergic receptor (Rattus norvegicus, UniProt P22909); test: α2-Adrenergic receptor binding (Mallard et al.); conditions: rat brain (title of cited method); read-out: IC50 α2
# T5 construct: in the rat brain; from tissue; host or cells: rat brain
# T5 sequence (P22909 1-465): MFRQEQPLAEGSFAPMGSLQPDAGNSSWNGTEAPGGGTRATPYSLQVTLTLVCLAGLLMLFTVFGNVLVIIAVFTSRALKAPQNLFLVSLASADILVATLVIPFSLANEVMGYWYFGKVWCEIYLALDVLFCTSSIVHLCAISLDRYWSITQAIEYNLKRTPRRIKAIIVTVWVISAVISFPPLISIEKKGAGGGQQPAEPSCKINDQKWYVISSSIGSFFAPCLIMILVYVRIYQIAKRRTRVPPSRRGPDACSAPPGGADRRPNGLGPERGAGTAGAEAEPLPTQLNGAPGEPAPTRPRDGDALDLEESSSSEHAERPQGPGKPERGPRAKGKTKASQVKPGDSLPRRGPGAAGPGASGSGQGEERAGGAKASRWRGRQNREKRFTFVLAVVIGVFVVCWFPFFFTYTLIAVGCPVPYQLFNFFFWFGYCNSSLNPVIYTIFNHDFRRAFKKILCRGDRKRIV
# Procedure: as §1
# Mallard N. J., Tyacke R., Hudson A. L. and Nutt D. S. Comparative binding studies of ^3 -idazoxan and ^3 -RX821002 in the rat brain. Brit. J. Pharmacol. 102, 221P, 1991.
# α1-Adrenergic receptor = α1-Adrenergic receptor binding (Leslie Morrow and Creese); conditions: rat brain (title of cited method)
# Procedure: as §1
# Leslie Morrow A. and Creese I. Characterization of α1-adrenergic receptor subtypes in rat brain: a reevaluation of ^3 H-WB4101 and ^3 H prazosin binding. Mol. Pharmacol. 29, 321-330, 1986.
# D2-Dopaminergic receptor = target: T6, D2-Dopaminergic receptor (Canis lupus familiaris, UniProt Q9GJU1); test: D2-Dopaminergic receptor binding (Nisnik et al.); conditions: 3H-YM-09159-2 (title of cited method); read-out: IC50 D2
# T6 construct: from tissue
# T6 sequence (Q9GJU1 whole entry): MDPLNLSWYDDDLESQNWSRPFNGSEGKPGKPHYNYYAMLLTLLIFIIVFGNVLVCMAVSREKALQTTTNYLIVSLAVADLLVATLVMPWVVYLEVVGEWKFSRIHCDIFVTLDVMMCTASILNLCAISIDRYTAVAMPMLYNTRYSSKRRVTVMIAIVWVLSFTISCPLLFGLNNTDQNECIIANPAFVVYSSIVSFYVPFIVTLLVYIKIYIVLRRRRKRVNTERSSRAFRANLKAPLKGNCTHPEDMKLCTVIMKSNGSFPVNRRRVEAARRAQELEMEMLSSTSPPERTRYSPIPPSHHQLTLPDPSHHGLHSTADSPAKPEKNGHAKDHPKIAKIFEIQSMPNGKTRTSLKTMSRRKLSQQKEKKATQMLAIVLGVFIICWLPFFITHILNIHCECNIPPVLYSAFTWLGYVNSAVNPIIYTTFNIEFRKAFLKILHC
# Procedure: as §1
# Nisnik H. B., Grigoriadis D. E., Pri-Bar I., Buckman O. and Seeman P. Dopamine D2 receptors selectively labeled by a benzamide neuroleptic: ^3 H-YM-09159-2 Naunyn-Schmiedeberg's Arch. Pharmacol. 329, 333-343, 1985.
smiles,measurement,setting,value
"NCCc1c[nH]c2ccc(OC(C(=O)N3CCN(c4cccc5ccccc45)CC3)c3ccccc3)cc12 (stereo not drawn) [Example 10, 4-Naphthyl-1-[tryptamine-5-O-(α-phenylcarboxymethyl)]piperazide hydrochloride]",Ratio 1A/1D,5-HT1D,0.7
same,IC50,5-HT1A,465 nM
same,IC50,5-HT1B,335 nM
same,IC50,5-HT1C,> 1000 nM
same,IC50,5-HT2,> 1000 nM
same,IC50,α2-Adrenergic receptor,> 1000 nM
same,IC50,α1-Adrenergic receptor,> 1000 nM
same,IC50,D2-Dopaminergic receptor,> 1000 nM
